According to the NIST ThermoML archive (doi:10.1021/acs.jced.9b00419):
Values joined by “and” are separate entries in the source; they are usually repeats but may differ in a detail not shown here. Identical values can stand only once.

Conditions: Liquid, Transpiration method

CCCCCCC(CO)CCCC (stereo unspecified) [2-butyl-1-octanol]
Conditions | vapor or sublimation pressure [kPa]
308.1 K | 0.00112
312.9 K | 0.00195
317.8 K | 0.00325
322.7 K | 0.00526
327.6 K | 0.00824
332.5 K | 0.01315
337.5 K | 0.02027
342.6 K | 0.03024
347.6 K | 0.0452
352.6 K | 0.06767

CCCCCCOC(=O)CCCCC [hexanoic acid, hexyl ester]
Conditions | vapor or sublimation pressure
298.4 K | 0.00313 kPa
303.2 K | 0.0049 kPa
308 K | 0.00732 kPa
312.8 K | 0.01166 kPa and 0.01116 kPa
317.7 K | 0.01667 kPa
322.6 K | 0.0257 kPa
327.5 K | 0.03605 kPa
332.4 K | 0.05276 kPa
337.3 K | 0.07541 kPa
342.3 K | 0.1055 kPa
347.3 K | 0.1426 kPa and 0.1453 kPa
